# Assay results from US20250255845A1, “USE OF INTERLEUKIN (IL)-17A INHIBITOR IN PREPARATION OF MEDICAMENT FOR TREATING INFLAMMATORY DISEASE” (Xiangnan University, priority 2024, published 2025).
# Columns and labels:
# Format in all cases: cell-based, mouse
# IL-23 mRNA = experiment: Real-time fluorescence quantitative PCR, LPS-induced IL-23 mRNA in RAW264.7 cells
# Method: (§1) RAW264.7 cell culture: mouse mononuclear macrophages (RAW264.7, ATCC) are cultured in a complete medium containing 10% fetal bovine serum (FBS), 1% double antibodies (penicillin and streptomycin), and 89% DMEM at 37° C. and 5% CO2. In this experiment, RAW264.7 cells from passages 3 to 8 are used for related test.
# (§2) LPS (100 ng/ml) is added for stimulation, with or without Tan, and the cell supernatant is collected to detect the contents of NO, IL-23, IL-17A, TNF-α, and IL-6 in the cell supernatant. The cell lysate is collected and the protein expressions (STAT3, p-STAT3 (Ser727), and p-STAT3 (Tyr705)) are detected by Western blot. Total cell RNA is extracted and real-time fluorescence quantitative polymerase chain reaction (PCR) is conducted to detect the expression levels of IL-23, IL-17A, TNF-α, and IL-6 mRNA.
# RAW264.7 cells were inoculated into 6-well plate and the cell density was adjusted to 5.0×10^6 cells/well. […] The fluorescence intensity of each sample was detected according to the instructions of the real-time fluorescence quantitative PCR kit and specific primers (Table 1) (cycle conditions: enzyme activation 95° C. for 3 min, 1 cycle; denaturation 95° C. for 15 s, annealing/extension 60° C. for 1 min, 40 cycles). The mRNA expression level of each group was normalized with the GAPDH expression level, and the relative expression of mRNA was calculated using the 2^−ΔΔCt method.
# IL-6 = experiment: ELISA of LPS-induced IL-6 secretion in RAW264.7 cells
# Method: as §1, §2
# RAW264.7 cells in the logarithmic growth phase were inoculated into a 6-well plate and the cell density was adjusted to 5.0×10^5 cells/well. After culturing for 24 h, the cells were stably adhered to the plate. The original medium was removed and different concentrations (5, 10, 20, 40 μM) of Tan were added to allow pretreatment for 1 h. […] The OD450 nm value of the cell supernatant was detected according to the instructions of the TNF-α and IL-6 ELISA kits, and the content of pro-inflammatory factors (TNF-α and IL-6) in the cell supernatant was calculated.
# IL-17A mRNA = experiment: Real-time fluorescence quantitative PCR, LPS-induced IL-17A mRNA in RAW264.7 cells
# Method: as §1, §2
# RAW264.7 cells were inoculated into 6-well plate and the cell density was adjusted to 5.0×10^6 cells/well. After cultured for 24 h, the cells were stably adhered to the wall. The original medium was removed and different concentrations (5, 10, 20, 40 μM) of Tan were added to allow pretreatment for 1 h. LPS (100 ng/mL) was added and continued to be incubated for 24 h. The commercial TRlcom lysis buffer provided by Jianshi Biotech was added to extract total RNA from cells using the centrifugal column method and immediately reverse transcribed into c-DNA. The fluorescence intensity of each sample was detected according to the instructions of the real-time fluorescence quantitative PCR kit and specific primers (Table 1) (cycle conditions: enzyme activation 95° C. for 3 min, 1 cycle; denaturation 95° C. for 15 s, annealing/extension 60° C. for 1 min, 40 cycles). The mRNA expression level of each group was normalized with the GAPDH expression level, and the relative expression of mRNA was calculated using the 2^−ΔΔCt method.
# p-STAT3 (Tyr 705) = experiment: Western blot of p-STAT3 (Tyr 705) in LPS-induced RAW264.7 cells
# Method: as §1, §2
# RAW264.7 cells in the logarithmic growth phase were inoculated in 100 mm culture dishes, and the cell density was adjusted to 1.6×10^6 cells/dish. […] The supernatant was collected by centrifugation at 4° C., 12,000 rpm for 5 min, and the protein concentration was determined by BCA method. […] Enhanced Chemiluminescence (ECL) color development was used for detection, and protein band quantification was performed using Image J software.
# [1] = 5-40 μM, 24 h, vs LPS, P<0.001, dose-dependent
structure (smiles),measurement,setting,value
"COc1ccc(-c2cc(=O)c3c(OC)c(OC)c(OC)c(OC)c3o2)cc1 [Tan, tangeretin]",inhibitory effect on IL-23 mRNA compared with positive control Clo,IL-23 mRNA; 40 μM,comparable to that of the positive control Clo
same,relative expression level of IL-23 mRNA,IL-23 mRNA; [1],significantly decreased
same,inhibitory effect on IL-6 secretion compared with positive control Clo,IL-6; 40 μM,comparable to that of the positive control
same,IL-6 level in the cell supernatant,"IL-6; 5-40 μM, 24 h, vs LPS group, P<0.001, dose-dependent",significantly decreased
same,inhibitory effect on IL-17A (FIG. 5B),IL-17A mRNA,strong inhibitory effect
same,inhibitory effect on IL-17A mRNA compared with positive control Clo,IL-17A mRNA; 40 μM,comparable to that of the positive control Clo
same,relative expression level of IL-17A mRNA,IL-17A mRNA; [1],significantly decreased
same,suppression of STAT3 phosphorylation (Tyr 705) compared with positive control Clo,p-STAT3 (Tyr 705); 40 μM,comparable efficacy to the positive control
same,expression of p-STAT3 (Tyr 705) protein,"p-STAT3 (Tyr 705); 5-40 μM, vs LPS group, P<0.001, dose-dependent",inhibited
